From ChEMBL document CHEMBL3880402, “Inhibitors of E1 activating enzymes” (2006)

Molecular target: T1, NEDD8-activating enzyme E1 catalytic subunit (Homo sapiens, UniProt Q8TBC4)
T1 sequence (Q8TBC4 whole entry): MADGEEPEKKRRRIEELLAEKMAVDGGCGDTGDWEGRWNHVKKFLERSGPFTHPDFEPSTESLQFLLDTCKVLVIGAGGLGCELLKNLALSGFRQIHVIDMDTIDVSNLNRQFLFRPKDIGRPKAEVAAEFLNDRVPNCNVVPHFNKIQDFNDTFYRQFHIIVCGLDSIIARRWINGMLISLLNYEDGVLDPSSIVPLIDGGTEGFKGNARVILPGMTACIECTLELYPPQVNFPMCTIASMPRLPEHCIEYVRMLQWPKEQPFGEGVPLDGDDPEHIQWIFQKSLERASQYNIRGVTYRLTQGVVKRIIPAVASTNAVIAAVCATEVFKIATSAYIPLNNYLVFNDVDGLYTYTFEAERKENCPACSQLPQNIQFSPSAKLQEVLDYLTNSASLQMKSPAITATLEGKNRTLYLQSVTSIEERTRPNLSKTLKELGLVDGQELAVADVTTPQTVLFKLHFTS
Assay: Inhibition of recombinant human untagged NAEalpha/N-terminal His-tagged NAEbeta expressed in Bac-to-Bac expression system using FLAG-tagged NEDD8 as substrate after 90 mins in presence of GST-tagged Ubc12 by HTRF assay

Row | SMILES | IC50 [nM]
1 | NS(=O)(=O)OC[C@H]1O[C@@H](n2cnc3c(-c4cccc(-n5cccn5)c4)ncnc32)[C@H](O)[C@@H]1O | 100 to 1000
2 | NS(=O)(=O)OC[C@H]1O[C@@H](n2cnc3c(C#Cc4ccccc4C(F)(F)F)ncnc32)[C@H](O)[C@@H]1O | 100 to 1000
3 | NS(=O)(=O)OC[C@H]1O[C@@H](n2cnc3c(N[C@H]4CCc5ccccc54)nncc32)[C@H](O)[C@@H]1O | 100 to 1000
4 | NS(=O)(=O)OC[C@H]1O[C@@H](n2cnc3c(-c4cccc(C(F)(F)F)c4)ncnc32)[C@H](O)[C@@H]1O | 100 to 1000
5 | NS(=O)(=O)OC[C@H]1O[C@@H](n2cnc3c(C4CC4)ncnc32)[C@H](O)[C@@H]1O | 100 to 1000
6 | NS(=O)(=O)OC[C@H]1O[C@@H](n2cnc3c(CNC(=O)c4cc(F)cc(F)c4)ncnc32)[C@H](O)[C@@H]1O | 100 to 1000
7 | CC(=O)NCc1ccccc1CNc1ncnc2c1ncn2[C@@H]1O[C@H](COS(N)(=O)=O)[C@@H](O)[C@H]1O | 100 to 1000
8 | CCc1cn([C@H]2C[C@H](O)[C@@H](COS(N)(=O)=O)O2)c2ncnc(CCc3ccccc3)c12 | ≤ 1000
9 | NS(=O)(=O)OC[C@H]1O[C@@H](n2cnc3c(C#Cc4cccc(Cl)c4)ncnc32)[C@H](O)[C@@H]1O | 100 to 1000
10 | Cc1ncnc2c1ncn2[C@@H]1O[C@H](COS(N)(=O)=O)[C@@H](O)[C@H]1O | 100 to 1000
11 | NS(=O)(=O)OC[C@H]1O[C@@H](n2ccc3cncnc32)C[C@@H]1O | 100 to 1000
12 | NS(=O)(=O)OC[C@H]1O[C@@H](n2cnc3c(NCc4ccc(F)cc4)ncnc32)[C@H](O)[C@@H]1O | 100 to 1000
13 | NS(=O)(=O)OC[C@H]1O[C@@H](n2cnc3c(NC(=O)c4ccc(Cl)cc4)ncnc32)[C@H](O)[C@@H]1O | 100 to 1000
14 | NS(=O)(=O)OC[C@H]1O[C@@H](n2cnc3c(C#Cc4ccc(F)cc4F)ncnc32)[C@H](O)[C@@H]1O | 100 to 1000
15 | NS(=O)(=O)OC[C@H]1C[C@@H](n2cnc3c(C#Cc4ccccc4)ncnc32)C[C@@H]1O | 100 to 1000
16 | NS(=O)(=O)OC[C@H]1O[C@@H](n2cnc3c(CCc4ccccc4)ncnc32)[C@H](O)[C@@H]1O | 100 to 1000
17 | NS(=O)(=O)OC[C@H]1O[C@@H](n2cnc3c(NCCN4CCCC4)ncnc32)[C@H](O)[C@@H]1O | 100 to 1000
18 | CC(C)Cc1ncnc2c1ncn2[C@@H]1C[C@H](COS(N)(=O)=O)[C@@H](O)[C@H]1O | ≤ 1000
19 | NS(=O)(=O)OC[C@H]1O[C@@H](n2cnc3c(CNC(=O)c4cccnc4)ncnc32)[C@H](O)[C@@H]1O | 100 to 1000
20 | NS(=O)(=O)NC[C@H]1O[C@@H](n2cnc3c(C#Cc4ccccc4)ncnc32)[C@H](O)[C@@H]1O | 100 to 1000
21 | CC(C)Cc1ncnc2c1ncn2[C@@H]1O[C@H](COS(N)(=O)=O)[C@@H](O)[C@H]1O | ≤ 1000
22 | NS(=O)(=O)NC[C@H]1C[C@@H](n2cnc3c(N[C@H]4CCc5ccccc54)ncnc32)[C@H](O)[C@@H]1O | 100 to 1000
23 | NS(=O)(=O)OC[C@H]1O[C@@H](n2cnc3c(C#Cc4ccccc4Br)ncnc32)[C@H](O)[C@@H]1O | 100 to 1000
24 | CO[C@@H]1[C@H](O)[C@@H](COS(N)(=O)=O)O[C@H]1n1cnc2c(N[C@H]3CCc4ccccc43)ncnc21 | 100 to 1000

Row | SMILES | IC50 [nM]
25 | NS(=O)(=O)OC[C@H]1O[C@@H](n2cnc3c(NC(=O)c4ccc(Br)cc4)ncnc32)[C@H](O)[C@@H]1O | 100 to 1000
26 | NS(=O)(=O)OC[C@H]1O[C@@H](n2cnc3c(/C=C/c4ccccc4)ncnc32)[C@H](O)[C@@H]1O | 100 to 1000
27 | COc1ccccc1C(=O)Nc1ncnc2c1ncn2[C@@H]1O[C@H](COS(N)(=O)=O)[C@@H](O)[C@H]1O | 100 to 1000
28 | C[C@@]1(O)[C@H](O)[C@@H](COS(N)(=O)=O)O[C@H]1n1cnc2c(N[C@H]3CCc4ccccc43)ncnc21 | 100 to 1000
29 | NS(=O)(=O)OC[C@H]1O[C@@H](n2cnc3c(CC4Cc5ccccc5C4)ncnc32)[C@H](O)[C@@H]1O | 100 to 1000
30 | NS(=O)(=O)NC[C@H]1O[C@@H](n2cnc3c(NC[C@H](O)c4cccc(O)c4)ncnc32)[C@H](O)[C@@H]1O | 100 to 1000
31 | NS(=O)(=O)OC[C@H]1O[C@@H](n2cnc3c(N[C@H]4CCc5ccccc54)nccc32)[C@H](O)[C@@H]1O | 100 to 1000
32 | NS(=O)(=O)OC[C@H]1C[C@@H](n2cnc3c(N[C@H]4CCc5ccccc54)ncnc32)C[C@@H]1O | 100 to 1000
33 | NS(=O)(=O)OC[C@H]1O[C@@H](n2cnc3c(-c4ccco4)ncnc32)[C@H](O)[C@@H]1O | 100 to 1000
34 | COc1ncnc2c1ccn2[C@H]1C[C@H](O)[C@@H](COS(N)(=O)=O)O1 | ≤ 1000
35 | NS(=O)(=O)OC[C@H]1O[C@@H](n2cnc3c(-c4ccccc4)ncnc32)[C@H](O)[C@@H]1O | 100 to 1000
36 | NS(=O)(=O)OC[C@H]1O[C@@H](n2cnc3c(CN4C(=O)c5ccccc5C4=O)ncnc32)[C@H](O)[C@@H]1O | 100 to 1000
37 | NS(=O)(=O)OC[C@H]1O[C@@H](n2cnc3c(NCc4ccc5c(c4)OCO5)ncnc32)[C@H](O)[C@@H]1O | 100 to 1000
38 | NS(=O)(=O)CC[C@H]1O[C@@H](n2cnc3c(NC(c4ccccc4)c4ccccc4)ncnc32)[C@H](O)[C@@H]1O | 100 to 1000
39 | NS(=O)(=O)OC[C@H]1O[C@@H](n2cnc3c(C#Cc4cccc(F)c4)ncnc32)[C@H](O)[C@@H]1O | 100 to 1000
40 | NS(=O)(=O)OC[C@H]1O[C@@H](n2cnc3c(CN4Cc5ccccc5C4)ncnc32)[C@H](O)[C@@H]1O | 100 to 1000
41 | NS(=O)(=O)OC[C@@H]1C[C@@H](O)[C@H](n2cnc3c(N[C@H]4CCc5ccccc54)ncnc32)O1 | 100 to 1000
42 | CCc1ncnc2c1ncn2[C@@H]1O[C@H](COS(N)(=O)=O)[C@@H](O)[C@H]1O | 100 to 1000
43 | CC1(C)CC(Nc2ncnc3c2ncn3[C@@H]2O[C@H](CCS(N)(=O)=O)[C@@H](O)[C@H]2O)c2ccccc21 (some centres not stated) | 100 to 1000
44 | NS(=O)(=O)OC[C@H]1O[C@@H](n2cnc3c(NC(=O)Nc4ccccc4)ncnc32)[C@H](O)[C@@H]1O | 100 to 1000
45 | NS(=O)(=O)OC[C@H]1O[C@@H](n2cnc3c(N[C@H]4CCc5ccccc54)ncnc32)[C@@H](O)[C@@H]1O | 100 to 1000
46 | COc1ccccc1C(=O)NCc1ncnc2c1ncn2[C@@H]1O[C@H](COS(N)(=O)=O)[C@@H](O)[C@H]1O | 100 to 1000
47 | NS(=O)(=O)OC[C@H]1O[C@@H](n2cnc3c(C#Cc4ccc(F)cc4)ncnc32)[C@H](O)[C@@H]1O | 100 to 1000
48 | NS(=O)(=O)OC[C@H]1O[C@@H](n2cnc3c(C#Cc4cccc(C(F)(F)F)c4)ncnc32)[C@H](O)[C@@H]1O | 100 to 1000

Row | SMILES | IC50 [nM]
49 | NS(=O)(=O)OC[C@H]1O[C@@H](n2cnc3c(C#Cc4ccccc4)ncnc32)C[C@@H]1O | 100 to 1000
50 | NS(=O)(=O)OC[C@H]1O[C@@H](n2cnc3c(C#Cc4cc(F)cc(F)c4)ncnc32)[C@H](O)[C@@H]1O | 100 to 1000
51 | NS(=O)(=O)OC[C@H]1O[C@@H](n2cnc3c(C#Cc4ccc(Br)cc4)ncnc32)[C@H](O)[C@@H]1O | 100 to 1000
52 | COc1ccc(C#Cc2ncnc3c2ncn3[C@@H]2O[C@H](COS(N)(=O)=O)[C@@H](O)[C@H]2O)cc1 | 100 to 1000
53 | CN(c1ncnc2c1ncn2[C@@H]1O[C@H](COS(N)(=O)=O)[C@@H](O)[C@H]1O)[C@H]1CCc2ccccc21 | 100 to 1000
54 | NS(=O)(=O)OC[C@H]1O[C@@H](n2cnc3c(CNC(=O)c4ccccc4)ncnc32)[C@H](O)[C@@H]1O | 100 to 1000
55 | Cc1noc(C)c1-c1ncnc2c1ncn2[C@@H]1O[C@H](COS(N)(=O)=O)[C@@H](O)[C@H]1O | 100 to 1000
56 | NS(=O)(=O)OC[C@H]1O[C@@H](n2cnc3c(C#Cc4cccc(Br)c4)ncnc32)[C@H](O)[C@@H]1O | 100 to 1000
57 | NS(=O)(=O)OC[C@H]1O[C@@H](n2cnc3c(N[C@H]4CCc5ccccc54)ncnc32)[C@@H](F)[C@@H]1O | 100 to 1000
58 | NS(=O)(=O)OC[C@H]1O[C@@H](n2cnc3c(C#Cc4ccc(Cl)cc4)ncnc32)[C@H](O)[C@@H]1O | 100 to 1000
59 | NS(=O)(=O)OC[C@H]1O[C@@H](n2cnc3c(NCc4ccccc4)ncnc32)C[C@@H]1O | 100 to 1000
60 | NS(=O)(=O)OC[C@H]1C[C@@H](n2cnc3c(CCc4ccccc4)ncnc32)[C@H](O)[C@@H]1O | 100 to 1000
61 | NS(=O)(=O)OC[C@H]1O[C@@H](n2ccc3c(N[C@H]4CCc5ccccc54)ncnc32)C[C@@H]1O | 100 to 1000
62 | NS(=O)(=O)OC[C@H]1C[C@@H](n2cnc3c(C#Cc4ccccc4)ncnc32)[C@H](O)[C@@H]1O | 100 to 1000
63 | NS(=O)(=O)OC[C@H]1O[C@@H](n2ccc3c(NCc4ccccc4)nccc32)C[C@@H]1O | ≤ 1000
64 | CO[C@H]1[C@H](O)[C@@H](COS(N)(=O)=O)O[C@H]1n1cnc2c(N[C@H]3CCc4ccccc43)ncnc21 | 100 to 1000
65 | NS(=O)(=O)OC[C@H]1O[C@@H](n2cnc3c(C#CC4CC4)ncnc32)[C@H](O)[C@@H]1O | 100 to 1000
66 | CCCc1ncnc2c1ncn2[C@@H]1C[C@H](COS(N)(=O)=O)[C@@H](O)[C@H]1O | 100 to 1000
67 | NS(=O)(=O)OC[C@H]1O[C@@H](n2ccc3c(NC(=O)c4ccccc4)ncnc32)C[C@@H]1O | 100 to 1000
68 | NS(=O)(=O)OC[C@H]1O[C@@H](n2cnc3c(C#Cc4ccccc4F)ncnc32)[C@H](O)[C@@H]1O | 100 to 1000
69 | NS(=O)(=O)OC[C@H]1O[C@@H](n2cnc3c(NS(=O)(=O)c4ccccc4)ncnc32)[C@H](O)[C@@H]1O | 100 to 1000
70 | NS(=O)(=O)OC[C@H]1O[C@@H](n2cnc3c(C#Cc4ccccc4Cl)ncnc32)[C@H](O)[C@@H]1O | 100 to 1000
71 | COc1ccccc1C#Cc1ncnc2c1ncn2[C@@H]1O[C@H](COS(N)(=O)=O)[C@@H](O)[C@H]1O | 100 to 1000
72 | NS(=O)(=O)CC[C@H]1O[C@@H](n2cnc3c(NCc4ccc(Cl)cc4)ncnc32)[C@H](O)[C@@H]1O | 100 to 1000
